Laboratory results: patent US12577232B2, “N-heterocycle substituted tryptamine derivatives and methods of using” (ENVERIC B[…] INC., priority 2024, dated 2026)
Several values for one entry are separate records, joined by “and”; a condition that tells them apart may be missing. Equal entries are not always repeated.

How the values were obtained:
[1] = system: human model (NT2) neurons; assay: Neuroplastogenicity (neurite outgrowth) assay in NT2 neurons; format: cell-based; design: key: a positive (+) designation indicating strong evidence of enhanced neurite outgrowth in drug-treated NT2 cells compared to vehicle-treated cells; a negative (−) designation indicating weak or no evidence of enhanced neurite outgrowth in drug-treated NT2 cells compared to vehicle-treated cells; conditions: 1 or 10 μM, 48 h, visual inspection vs vehicle (0.1% DMSO)
Text: Classic psychedelics such as psilocybin and DMT show potential to treat anxiety and depression, and it has been theorized that such long-term improvements arise because these drugs rapidly and lastingly stimulate neuroplasticity (Calder and Hasler, 2023, Neuropsychopharmacol. 48:104-112). Thus, it was of interest to determine the potential of new compounds as neuroplastogens. Herein, we assess the capacity of various compounds to enhance neurite outgrowth in human model (NT2) neurons.
Human NT2/D1 precursor cells were purchased from the American Type Culture Collection (ATCC, Manassas, VA, USA). Neuronal differentiation was carried out as previously described (Roloff et al., 2015, PloS ONE 10:e0118536) with minor modifications. Firstly, NT2/D1 cells were seeded in T-25 suspension culture flasks (REF #690190, Greiner bio-one, Germany). Each flask contains a minimum of 5×10^6 cells in 10 ml of DMEM/F12 supplemented with 10% fetal bovine serum (FBS), 1% penicillin and streptomycin and 10 μM retinoic acid (RA) medium to start neuronal differentiation. The cells were cultured for 3 days in free floating medium. At the end of the incubation cells were trypsinized and collected by centrifugation, mechanically dispersed, and counted. Counted cells were seeded along Poly D-Lysine (PDL) coated cover slips (12 mm; diameter round, Fisher Scientific; GG-12-PDL) containing a minimum of 0.1×10^5 cells in culture medium without RA. The next day culture medium was replaced with RA medium containing 2% of FBS. These cells cultured for 5 days and two days later, RA medium was changed.
After cells had successfully attached and established along coverslips, the RA medium was replaced with new medium containing 2% FBS and one of the following: (1) test compound (1 or 10 μM), (2) RhoK (ROCK) inhibitor Y-27632 (1 μM) as a positive control (Dihydrochloride; Sigma-Aldrich) (Roloff et al., 2015, PloS ONE 10:e0118536); (3) DMT (1 or 10 μM) as a positive control (Calder and Hasler, 2023, Neuropsychopharmacol. 48:104-112), or (4) vehicle (0.1% DMSO) as a negative control. These cells were incubated for 48 hours under standard conditions (370C, 5% CO2). The cells cultured along coverslips were collected after 48 hours of treatment. The coverslips washed with calcium chloride and magnesium chloride-free phosphate buffered saline (PBS) pH 7.4 (Gibco, #70011-044) and fixed in paraformaldehyde (PFA) 4% in PBS (#J61899, thermoscientific) for 15 min at room temperature (RT) and washed three times with 0.01% of Triton-X100 in PBS (PBST) to remove remaining PFA and to permeabilize the cells. Non-specific binding sites were blocked with 5% of Bovine Serum Albumin (BSA) solution (#9048-46-8, Millipore) in PBST for 60 minutes at RT. Rabbit monoclonal antibody β-III-tubulin (1:5,000, ab52623, Abcam) was applied overnight (O/N) at 4° C. Next day cells are washed three times in PBST, neurons were incubated with secondary antibody Donkey anti-rabbit IgG(H+L) Alexa Fluor™ Plus488 (1:5000 #A32790, Invitrogen) for 1 hour at RT. These coverslips were mounted on Gluoromount-G™, with 4′6-diamidino-2′henylindoldihydrochloride (DAPI) (#E141818, Invitrogen). The immunofluorescence images were analyzed using an Olympus VS110 slide scanner microscope.
B-III-Tubulin immunofluorescence was quantified using ImageJ. Briefly, Corrected Total Cell Fluorescence (CTCF) was acquired for at least ˜8-10 representative cells, where CTCF=Integrated Density−[Area of selected cell*Mean Fluorescence of background]. The CTCF values, referred to herein as ‘signal intensities’, were used to calculate overall means±SD for each treatment. One-Way ANOVA was used to compare treatments. Further, the mean of each treatment was compared with the mean of the control treatment (RA-differentiated cells treated with vehicle, 0.1% DMSO) using Dunnett's multiple comparison procedure. […]

5-HT2A receptor = biological target: T1, 5-HT2A receptor (Homo sapiens, UniProt P28223); assay: 5-HT2A receptor radioligand competition assay (SPA, [3H]ketanserin); format: binding; conditions: 1 nM [3H]ketanserin; membranes containing 5-HT2A; read-out: 5-HT2A, Ki
T1 construct: purchased PerkinElmer ES-313-M400UA
Experimental: Competition assays were performed as for 5-HT1A assays with the following differences. […] Determination of non-specific binding was carried out in the presence of […] of spiperone (S7395-250MG, Sigma-Aldrich). Equilibrium binding constant for ketanserin (Kd) was determined from saturation binding curves using the ‘one-site saturation binding analysis’ method in GraphPad PRISM software (Version 9.2.0).

C57BL/6 mice = assay: Mouse Head Twitch Response (HTR) assay to assess hallucinogenic potential; format: in vivo; conditions: 3 mg/kg i.p.; for mean HTR: 0-15 min interval (preliminary screening); for HTR compared with the HTR response for 5-Br-DMT (one-way ANOVA, Dunnett): alpha 0.05
Experimental: All experiments were approved by the University of Calgary Animal Care and Use Committee in accordance with Canadian Council on Animal Care guidelines. C57BL/6-Elite mixed sex mice were obtained from Charles River (8 weeks old). Until the first experiment, mice were group-housed, then single-housed on a 12:12 h light/dark schedule (lights on at 07:00 hours) with ad libitum access to food and water. Before any behavioral screening, mice were handled and exposed to the testing chamber for at least 5 min each day for three successive days and habituated to the experimental room 1 h before testing. The testing chamber was cleaned with a 70% ethanol solution between experiments to eliminate odor from other mice. Drug compounds (100 mM in DMSO) were diluted in sterile excipient (10% EtOH/15% PEG400 in ddH2O) to 3 mg/kg (preliminary screening) or 0.5, 2, 4, 7, and 10 mg/kg (dose-curve analysis) and administered using intraperitoneal (i.p.) drug injections. […] HTR was analyzed during the 0-to-15-minute window following drug administration. […] Mean HTR between 10 and 5 signifies reduced hallucinogenic potential relative to positive controls.

T1 sequence (P28223 whole entry): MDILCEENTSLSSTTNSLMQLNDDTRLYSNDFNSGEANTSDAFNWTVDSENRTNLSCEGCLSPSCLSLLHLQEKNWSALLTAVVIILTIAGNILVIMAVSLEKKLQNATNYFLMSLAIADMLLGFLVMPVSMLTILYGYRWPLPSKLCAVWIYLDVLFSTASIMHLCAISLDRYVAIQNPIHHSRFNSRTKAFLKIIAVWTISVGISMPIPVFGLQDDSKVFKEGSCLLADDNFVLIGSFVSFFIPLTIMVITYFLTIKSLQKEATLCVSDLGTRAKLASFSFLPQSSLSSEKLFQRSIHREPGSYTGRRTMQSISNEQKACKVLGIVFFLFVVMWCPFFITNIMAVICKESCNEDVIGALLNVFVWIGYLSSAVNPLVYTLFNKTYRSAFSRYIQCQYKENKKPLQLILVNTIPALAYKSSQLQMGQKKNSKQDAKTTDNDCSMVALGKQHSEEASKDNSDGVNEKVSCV

Question: For “5-bromo-dimethyltryptamine [Compound 5-Br-DMT, reference compound]”, which “Evidence of neurite outgrowth: Yes (+) or No (−)” value (“Evidence … (+) or No (−)” below) [1] is on record?
Answer: +

Question: With `COc1ccc2[nH]cc(CCN(C)C)c2c1` [Compound 5-MeO-DMT, 5-methoxy-dimethyltryptamine, reference compound] as the compound, how does the “Evidence … (+) or No (−)” value [1] read?
Answer: +

Question: Which results are given for `CCN(CC)CCc1c[nH]c2cc(F)ccc12` [Compound 6-F-DET, 6-fluoro-diethyltryptamine, reference compound]?
Answer: Ki (5-HT2A receptor): 0.35 µM; Evidence of neurite outgrowth: Yes (+) or No (−) [1]: +

Question: How did the Ki (5-HT2A receptor) turn out when `CC(=O)c1[nH]c2cc(F)c(N3CCOCC3)cc2c1CCN(C)C` [Compound (IX)] was run?
Answer: 14.2 µM

Question: And the “mean HTR” value (C57BL/6 mice)?
Answer: 9.25

Question: What about the “HTR compared with the HTR response for 5-Br-DMT (one-way ANOVA, Dunnett)” value (“HTR compared with the HTR response” below) (C57BL/6 mice) of the same compound?
Answer: not statistically significantly higher

Question: And the “Evidence … (+) or No (−)” value [1]?
Answer: −

Question: `CN(C)CCc1c[nH]c2ccc(N3CCOCC3)cc12` [Compound (V)] was tested. Which Ki (5-HT2A receptor) did it give?
Answer: 15 µM

Question: And the “mean HTR” value (C57BL/6 mice)?
Answer: 7.8

Question: And the “HTR compared with the HTR response” value (C57BL/6 mice)?
Answer: not statistically significantly higher

Question: What about the “Evidence … (+) or No (−)” value [1] of the same compound?
Answer: +

Question: What does the source list for `CN(C)CCc1c[nH]c2ccc(N3CCC3)cc12` [Compound (VI)]?
Answer: Ki (5-HT2A receptor): 12 µM; mean HTR (C57BL/6 mice): 11.5; Evidence of neurite outgrowth: Yes (+) or No (−) [1]: +

Question: Which Ki (5-HT2A receptor) does the source give for `CN(C)CCc1c[nH]c2cc(F)c(N3CCOCC3)cc12` [Compound (VII)] here?
Answer: 63.9 µM

Question: What about the “mean HTR” value (C57BL/6 mice) of the same compound?
Answer: 7.75

Question: And the “HTR compared with the HTR response” value (C57BL/6 mice)?
Answer: not statistically significantly higher

Question: And the “Evidence … (+) or No (−)” value [1]?
Answer: +

Question: Which results are given for `CN(C)CCc1c[nH]c2cc(N3CCOCC3)ccc12` [Compound (VIII)]?
Answer: Ki (5-HT2A receptor): 10.9 µM; mean HTR (C57BL/6 mice): 8.0; HTR compared with the HTR response for 5-Br-DMT (one-way ANOVA, Dunnett) (C57BL/6 mice): not statistically significantly higher; Evidence of neurite outgrowth: Yes (+) or No (−) [1]: −

Question: How did the Ki (5-HT2A receptor) turn out when `CN(C)CCc1c[nH]c2cc(N3CCCC3)ccc12` [Compound (X)] was run?
Answer: 7.8 µM

Question: What about the “mean HTR” value (C57BL/6 mice) of the same compound?
Answer: 7.25

Question: What about the “HTR compared with the HTR response” value (C57BL/6 mice) of the same compound?
Answer: not statistically significantly higher

Question: And the “Evidence … (+) or No (−)” value [1]?
Answer: +

Question: What does the source list for `CN(C)CCc1c[nH]c2cc(N3CCOCC3)c(F)cc12` [Compound (XI)]?
Answer: Ki (5-HT2A receptor): 0.71 µM; mean HTR (C57BL/6 mice): 10.5; Evidence of neurite outgrowth: Yes (+) or No (−) [1]: −

Question: Which results are given for `CN(C)CCc1c[nH]c2cc(F)cc(N3CCCC3)c12` [Compound (XIII)]?
Answer: Ki (5-HT2A receptor): 2.96 µM; mean HTR (C57BL/6 mice): 7.75; HTR compared with the HTR response for 5-Br-DMT (one-way ANOVA, Dunnett) (C57BL/6 mice): not statistically significantly higher; Evidence of neurite outgrowth: Yes (+) or No (−) [1]: +

Question: How did the Ki (5-HT2A receptor) turn out when `CN(C)CCc1c[nH]c2cc(N3CCCC3)c(F)cc12` [Compound (XIV)] was run?
Answer: 3.1 µM and 3.06 µM

Question: And the “mean HTR” value (C57BL/6 mice)?
Answer: 9.0

Question: What about the “HTR compared with the HTR response” value (C57BL/6 mice) of the same compound?
Answer: not statistically significantly higher

Question: And the “Evidence … (+) or No (−)” value [1]?
Answer: +

Question: For `CN(C)CCc1c[nH]c2cc(F)cc(N3CCN(C)CC3)c12` [Compound (XIX)], which “mean HTR” value (C57BL/6 mice) is on record?
Answer: 11.5

Question: For `CN(C)CCc1c[nH]c2cc(N3CCOCC3)cc(F)c12` [Compound (XVI)], which Ki (5-HT2A receptor) is on record?
Answer: 6.2 µM and 6.19 µM

Question: And the “mean HTR” value (C57BL/6 mice)?
Answer: 6.75

Question: And the “HTR compared with the HTR response” value (C57BL/6 mice)?
Answer: not statistically significantly higher

Question: How did the Ki (5-HT2A receptor) turn out when `CN(CCc1c[nH]c2cc(N3CCOCC3)c(F)cc12)Cc1ccccc1` [Compound (XX)] was run?
Answer: 25.6 µM

Question: What about the “mean HTR” value (C57BL/6 mice) of the same compound?
Answer: 7.25

Question: And the “HTR compared with the HTR response” value (C57BL/6 mice)?
Answer: not statistically significantly higher

Question: And the “Evidence … (+) or No (−)” value [1]?
Answer: +

Question: For `CN(C)CCc1c[nH]c2cc(N3CCN(C)CC3)cc(F)c12` [Compound (XXI)], which “mean HTR” value (C57BL/6 mice) is on record?
Answer: 9.25

Question: And the “HTR compared with the HTR response” value (C57BL/6 mice)?
Answer: not statistically significantly higher

Question: Which “mean HTR” value (C57BL/6 mice) does the source give for `CN(C)CCc1c[nH]c2cc(Cl)cc(N3CCOCC3)c12` [Compound (XXII)] here?
Answer: 6.5

Question: What about the “HTR compared with the HTR response” value (C57BL/6 mice) of the same compound?
Answer: not statistically significantly higher

Question: What does the source list for `CN(C)CCc1c[nH]c2cc(Cl)cc(N3CCN(C)CC3)c12` [Compound (XXIII)]?
Answer: Ki (5-HT2A receptor): 12.5 µM; mean HTR (C57BL/6 mice): 7.25; HTR compared with the HTR response for 5-Br-DMT (one-way ANOVA, Dunnett) (C57BL/6 mice): not statistically significantly higher; Evidence of neurite outgrowth: Yes (+) or No (−) [1]: +

Question: For `CN(C)CCc1c[nH]c2cc(F)c(N3CCN(C)CC3)cc12` [Compound (XXV)], which “mean HTR” value (C57BL/6 mice) is on record?
Answer: 8.5

Question: What about the “HTR compared with the HTR response” value (C57BL/6 mice) of the same compound?
Answer: not statistically significantly higher

Question: What about the “Evidence … (+) or No (−)” value [1] of the same compound?
Answer: −

Question: With `CN(C)CCc1c[nH]c2cc(F)c(N3CCN(c4ccccc4)CC3)cc12` [Compound (XXVI)] as the compound, how does the “mean HTR” value (C57BL/6 mice) read?
Answer: 8.25

Question: And the “HTR compared with the HTR response” value (C57BL/6 mice)?
Answer: not statistically significantly higher

Question: `CCN(CC)CCc1c[nH]c2cc(F)cc(N3CCOCC3)c12` [Compound (XXVII)] was tested. Which Ki (5-HT2A receptor) did it give?
Answer: 5.4 µM and 5.38 µM

Question: And the “mean HTR” value (C57BL/6 mice)?
Answer: 8.0

Question: And the “HTR compared with the HTR response” value (C57BL/6 mice)?
Answer: not statistically significantly higher

Question: What about the “Evidence … (+) or No (−)” value [1] of the same compound?
Answer: −

Question: With `C[C@@H](N)[C@H]1CC[C@H](C(=O)Nc2ccncc2)CC1` [RhoK, reference compound] as the compound, how does the “Evidence … (+) or No (−)” value [1] read?
Answer: +

Question: Which results are given for `COc1ccc2c3c([nH]c2c1)CCN(C)CC3` [TBG, tabernanthalog, reference compound]?
Answer: Ki (5-HT2A receptor): 0.8 µM; Evidence of neurite outgrowth: Yes (+) or No (−) [1]: +

Question: `N[C@@H](Cc1c[nH]c2ccccc12)C(=O)O` [tryptophan, reference compound] was tested. Which Ki (5-HT2A receptor) did it give?
Answer: > 1000 µM
